Measurements from patent US9662327B2 (AGIOS PHARMACEUTICALS, INC, priority 2011, dated 2017).

These compounds were tested against IDH1 R132H (Homo sapiens (Human), UniProt O75874, R132H) (assay: Assays for IDH1 R132H Inhibitors (NADPH/aKG, resazurin detection)). Conditions: IDH1 R132H enzyme, Table 2; read-out: IDHR132H Activity.
Assay type: biochemical
Experimental: Assays were conducted in a volume of […] assay buffer (150 mM NaCl, 10 mM MgCl2, 20 mM Tris pH 7.5, 0.03% bovine serum albumin) as follows in a standard 384-well plate: To 25 ul of substrate mix (8 uM NADPH, 2 mM aKG), 1 μl of test compound was added in DMSO. […] The reaction was incubated for 50 minutes at room temperature, then 25 μl of detection mix (30 μM resazurin, […]) was added and the mixture further incubated for 5 minutes at room temperature.

Sequence of IDH1 R132H (O75874 whole entry R132H): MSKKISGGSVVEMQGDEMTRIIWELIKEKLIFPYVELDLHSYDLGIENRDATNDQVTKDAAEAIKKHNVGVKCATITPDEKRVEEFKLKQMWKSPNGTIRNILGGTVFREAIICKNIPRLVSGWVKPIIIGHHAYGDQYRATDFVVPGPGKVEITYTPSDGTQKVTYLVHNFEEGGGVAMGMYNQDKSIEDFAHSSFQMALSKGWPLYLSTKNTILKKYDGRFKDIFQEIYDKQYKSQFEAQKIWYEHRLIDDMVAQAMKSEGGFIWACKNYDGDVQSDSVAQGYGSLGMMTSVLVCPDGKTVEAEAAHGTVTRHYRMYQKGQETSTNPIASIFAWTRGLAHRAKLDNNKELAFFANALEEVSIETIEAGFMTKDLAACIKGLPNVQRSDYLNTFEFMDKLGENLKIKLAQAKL

Structure (SMILES) | IC50 [nM]
CC(C)c1nc(N2CCN(C(=O)Nc3ccc(F)cc3)CC2)c(C#N)c2c1COCC2 [Compound 102, 4-(5-cyano-8-isopropyl-3,4-dihydro-1H-pyrano[3,4-c]pyridin-6-yl)-N-(4-fluorophenyl)piperazine-1-carboxamide] | 1000 to 10000
Cc1oncc1C(=O)N1CCN(c2nc(C3CCCCC3)c3c(c2C#N)CCOC3)C[C@H]1C [Compound 187, (R)-8-cyclohexyl-6-(3-methyl-4-(5-methylisoxazole-4-carbonyl)piperazin-1-yl)-3,4-dihydro-1H-pyrano[3,4-c]pyridine-5-carbonitrile] | 500 to 1000
CC(C)c1nc(N2CCN(C(=O)c3ccoc3)CC2c2ccccc2)c(C#N)c2c1COC(C)(C)C2 (stereo not shown) [Compound 178, 6-(4-(furan-3-carbonyl)-2-phenylpiperazin-1-yl)-8-isopropyl-3,3-dimethyl-3,4-dihydro-1H-pyrano[3,4-c]pyridine-5-carbonitrile] | 1000 to 10000
Cc1occc1C(=O)N1CCN(c2nc(C3CCCCC3)c3c(c2C#N)CCOC3)C[C@H]1C [Compound 184, (R)-8-cyclohexyl-6-(3-methyl-4-(2-methylfuran-3-carbonyl)piperazin-1-yl)-3,4-dihydro-1H-pyrano[3,4-c]pyridine-5-carbonitrile] | 1000 to 10000
CC(C)c1nc(N2CCN(C(=O)c3ccc(Cl)cc3Cl)CC2)c(C#N)c2c1COCC2 [Compound 106, 6-(4-(2,4-dichlorobenzoyl)piperazin-1-yl)-8-isopropyl-3,4-dihydro-1H-pyrano[3,4-c]pyridine-5-carbonitrile] | 1000 to 10000
CC(C)[C@@H]1CN(c2nc(C3CC3)c3c(c2C#N)CC(C)(C)OC3)CCN1C(=O)COCC1CC1 [Compound 390] | 500 to 1000
CCCC(=O)N1CCN(c2nc(C3CCCCC3)c3c(c2C#N)CCOC3)C[C@H]1C [Compound 379, (R)-6-(4-butyryl-3-methylpiperazin-1-yl)-8-cyclohexyl-3,4-dihydro-1H-pyrano[3,4-c]pyridine-5-carbonitrile] | 1000 to 10000
CC(C)[C@@H]1CN(c2nc(C3CC3)c3c(c2C#N)CC(C)(C)OC3)CCN1C(=O)Cn1nccn1 [Compound 407, (R)-6-(4-(2-(2H-1,2,3-triazol-2-yl)acetyl)-3-isopropylpiperazin-1-yl)-8-cyclopropyl-3,3-dimethyl-3,4-dihydro-1H-pyrano[3,4-c]pyridine-5-carbonitrile] | 500 to 1000
CC(C)[C@@H]1CN(c2nc(C3CC3)c3c(c2C#N)CC(C)(C)OC3)CCN1S(=O)(=O)c1ccc(Cl)s1 [Compound 285, (R)-6-(4-(5-chlorothiophen-2-ylsulfonyl)-3-isopropylpiperazin-1-yl)-8-cyclopropyl-3,3-dimethyl-3,4-dihydro-1H-pyrano[3,4-c]pyridine-5-carbonitrile] | 1000 to 10000
CCOC(=O)C1CN(c2nc(C3CC3)c3c(c2C#N)CC(C)(C)OC3)CCN1C(=O)c1ccoc1 (stereo not shown) [Compound 259, ethyl 4-(5-cyano-8-cyclopropyl-3,3-dimethyl-3,4-dihydro-1H-pyrano[3,4-c]pyridin-6-yl)-1-(furan-3-carbonyl)piperazine-2-carboxylate] | 1000 to 10000
CC1CN(c2nc(C3CCCCC3)c3c(c2C#N)CC(C)(C)OC3)CCN1C(=O)c1ccoc1 (stereo not shown) [Compound 169, 8-cyclohexyl-6-(4-(furan-3-carbonyl)-3-methylpiperazin-1-yl)-3,3-dimethyl-3,4-dihydro-1H-pyrano[3,4-c]pyridine-5-carbonitrile] | 1000 to 10000
CC(C)[C@@H]1CN(c2nc(C3CC3)c3c(c2C#N)CC(C)(C)OC3)CCN1C(=O)Cc1ccccc1F [Compound 228] | 1000 to 10000
CC(C)c1nc(N2CCN(S(=O)(=O)c3cccs3)[C@H](C)C2)c(C#N)c2c1COC(C)(C)C2 [Compound 170, (R)-8-isopropyl-3,3-dimethyl-6-(3-methyl-4-(thiophen-2-ylsulfonyl)piperazin-1-yl)-3,4-dihydro-1H-pyrano[3,4-c]pyridine-5-carbonitrile] | 1000 to 10000
CC(C)c1nc(N2CCN(C(=O)Cc3ccccn3)[C@H](C(C)C)C2)c(C#N)c2c1COC(C)(C)C2 [Compound 214, (R)-8-isopropyl-6-(3-isopropyl-4-(2-(pyridin-2-yl)acetyl)piperazin-1-yl)-3,3-dimethyl-3,4-dihydro-1H-pyrano[3,4-c]pyridine-5-carbonitrile] | 500 to 1000
CC(C)c1nc(N2CC(C)N(C(=O)c3ccco3)CC2C)c(C#N)c2c1COCC2 (stereo not shown) [Compound 114, 6-(4-(furan-2-carbonyl)-2,5-dimethylpiperazin-1-yl)-8-isopropyl-3,4-dihydro-1H-pyrano[3,4-c]pyridine-5-carbonitrile] | 1000 to 10000
CC(C)[C@@H]1CN(c2nc(C3CC3)c3c(c2C#N)CC(C)(C)OC3)CCN1C(=O)COCc1ccco1 [Compound 404, (R)-8-cyclopropyl-6-(4-(2-(furan-2-ylmethoxy)acetyl)-3-isopropylpiperazin-1-yl)-3,3-dimethyl-3,4-dihydro-1H-pyrano[3,4-c]pyridine-5-carbonitrile] | 1000 to 10000
CCOC(=O)C1CN(c2nc(C3CCCCC3)c3c(c2C#N)CCOC3)CCN1C(=O)CCOC (stereo not shown) [Compound 278, ethyl 4-(5-cyano-8-cyclohexyl-3,4-dihydro-1H-pyrano[3,4-c]pyridin-6-yl)-1-(3-methoxypropanoyl) piperazine-2-carboxylate] | 1000 to 10000
CC(C)[C@@H]1CN(c2nc(C3CC3)c3c(c2C#N)CC(C)(C)OC3)CCN1C(=O)CNC1CC1 [Compound 372, (R)-8-cyclopropyl-6-(4-(2-(cyclopropylamino)acetyl)-3-isopropylpiperazin-1-yl)-3,3-dimethyl-3,4-dihydro-1H-pyrano[3,4-c]pyridine-5-carbonitrile] | 1000 to 10000
CC(C)[C@@H]1CN(c2nc(C3CC3)c3c(c2C#N)CC(C)(C)OC3)CCN1C(=O)COC1CCOC1 (stereo partly drawn) [Compound 417, 8-cyclopropyl-6-((3R)-3-isopropyl-4-(2-(tetrahydrofuran-3-yloxy)acetyl)piperazin-1-yl)-3,3-dimethyl-3,4-dihydro-1H-pyrano[3,4-c]pyridine-5-carbonitrile] | 1000 to 10000
CC(C)[C@@H]1CN(c2nc(C3CC3)c3c(c2C#N)CC(C)(C)OC3)CCN1C(=O)Cc1cccs1 [Compound 194] | < 500
CC1(C)Cc2c(C#N)c(N3CCN(C(=O)c4ccco4)C(C)(C)C3)nc(C3CC3)c2CO1 [Compound 319] | 1000 to 10000
CCCOCC(=O)N1CCN(c2nc(C3CC3)c3c(c2C#N)CC(C)(C)OC3)C[C@H]1C(C)C [Compound 381] | 500 to 1000
C[C@@H]1CN(c2nc(C3CC3)c3c(c2C#N)CC(C)(C)OC3)[C@@H](C)CN1C(=O)Cc1cccs1 [Compound 309] | 1000 to 10000

Same assay, conditions: IDH1 R132H enzyme, Table 3; read-out: R132H IC50

Structure (SMILES) | IC50 [nM]
CC1CCN(c2nc(C3CC3)c3c(c2C#N)CC(C)(C)OC3)CCN1C(=O)C1CC1 (stereo not shown) [Compound 475, 6-(4-(cyclopropanecarbonyl)-5-methyl-1,4-diazepan-1-yl)-8-cyclopropyl-3,3-dimethyl-3,4-dihydro-1H-pyrano[3,4-c]pyridine-5-carbonitrile] | 500 to 1000
CC(C)[C@@H]1CN(c2nc(C3CC3)c3c(c2C#N)CC(C)(C)OC3)CCN1C(=O)C[S+](C)[O-] (stereo partly drawn) [Compound 453, 8-Cyclopropyl-6-((3R)-3-isopropyl-4-(2-(methylsulfinyl)acetyl)piperazin-1-yl)-3,3-dimethyl-3,4-dihydro-1H-pyrano[3,4-c]pyridine-5-carbonitrile] | 500 to 1000
